The values below come from patent US11472808B2, “Substituted pyrrolo[1,2-c]pyrimidines as hepatitis B antiviral agents” (Enanta Pharmaceuticals, Inc., priority 2019, dated 2022).

Molecules are shown by their SMILES.

The term EC50 denotes the concentration that produces a half-maximal response.

The test system of this test is HBV. Description: HepAD38 anti-HBV assay: reduction of viral product accumulation (virion DNA qPCR, HBsAg/HBeAg ELISA). The class given is cell-based. Conditions: Hepatitis B virus, 120 h; HepAD38 cells; concentration reducing viral product accumulation by 50% relative to no drug controls; harvest five days after compound addition; read-out: HepAD38 EC50. The protocol: Methods: HepAD38 cells are maintained as previously reported (Ladner et al, Antimicrob. Agents Chemother. 1997, […], 1715). Briefly, cells are passaged upon attaining confluency in DMEM/F12 media in the presence of 10% FBS, Penn/Strep, 250 μg/mL G418, and 1 μg/ml tetracycline. Novel compounds are screened by first washing cells three times with PBS to remove tetracycline, and plating in 96 well plates at 35,000 cells/well. Compounds dissolved in DMSO are then diluted 1:200 into wells containing cells. Five days after compound addition, material is harvested for analysis. For an extended 8 day analysis, cells are plated and treated as described above, but media and compound are refreshed on d2 and d5 post initial treatment.
On harvest day, virion DNA is obtained by lysing with Sidestep Lysis and Stabilization Buffer and then quantified via quantitative real time PCR. Commercially available ELISA kits are used to quantitate the viral proteins HBsAg (Alpco) or HbeAg (US Biological) by following the manufacturer's recommended protocol after diluting samples to match the linear range of their respective assays. Irrespective of readout, compound concentrations that reduce viral product accumulation in the cell lysates or supernatants by 50% relative to no drug controls (EC50) are reported; EC50 ranges are as follows: A<0.1 μM; B 0.1-0.4 μM; C>0.4 μM.
(In general: Real-time PCR tracks product formation cycle by cycle.)
For `O=S(=O)(N[C@H]1CC2=C(c3ccn(C(F)F)n3)[C@H](c3ccc(F)cc3Cl)N=C(c3nccs3)N2C1)N1CCC[C@H]1C(F)(F)F` [Example 281], the EC50 was less than 0.1 µM.

On to `O=S(=O)(CCCc1nnn[nH]1)N[C@H]1CC2=C(c3ccn(C(F)F)n3)[C@H](c3ccc(F)cc3Cl)N=C(c3nccs3)N2C1` [Example 137], for which the EC50 was more than 0.4 µM.

In the case of `O=C(N[C@H]1CC2=C(c3ccn(C(F)F)n3)[C@H](c3ccc(F)cc3Cl)N=C(c3nccs3)N2C1)C(=O)c1ccccc1` [Example 419], the EC50 fell in the range of 0.1 to 0.4 µM.

On to `COC(=O)c1ccccc1S(=O)(=O)NC[C@@]1(F)CC2=C(c3ccn(C(F)F)n3)[C@H](c3ccc(F)cc3Cl)N=C(c3nccs3)N2C1` [Example 188], for which the EC50 was more than 0.4 µM.

In the case of `CC1(S(=O)(=O)N[C@H]2CC3=C(c4ccn(C(F)F)n4)[C@H](c4ccc(F)cc4Cl)N=C(c4nccs4)N3C2)CC1` [Example 405], the EC50 is less than 0.1 µM.

As for `COC(=O)c1ccc(NC(=O)N2CCN([C@H]3CC4=C(c5ccn(C(F)F)n5)[C@H](c5ccc(F)cc5Cl)N=C(c5nccs5)N4C3)CC2)cc1` [Example 46], the EC50 is more than 0.4 µM.

As for `CCNS(=O)(=O)N[C@H]1CC2=C(c3ccn(C(F)F)n3)[C@H](c3ccc(F)cc3Cl)N=C(c3nccs3)N2C1` [Example 76], the EC50 was less than 0.1 µM.

For `O=C(N[C@H]1CC2=C(c3ccn(C(F)F)n3)[C@H](c3ccc(F)cc3Cl)N=C(c3nccs3)N2C1)N1CCC1` [Example 210], the EC50 is less than 0.1 µM.

For the compound `CC(C)OC(=O)N[C@H]1CC2=C(c3ccn(C(F)F)n3)[C@H](c3ccc(F)cc3Cl)N=C(c3nccs3)N2C1` [Example 202], the EC50 was less than 0.1 µM.

With `O=C(N[C@H]1CC2=C(c3ccn(C(F)F)n3)[C@H](c3ccc(F)cc3Cl)N=C(c3nccs3)N2C1)OC1CCCC1` [Example 252], the EC50 is more than 0.4 µM.

In the case of `CNC(=O)OCC1(F)CC2=C(c3ccn(C(F)F)n3)[C@H](c3ccc(F)cc3Cl)N=C(c3nccs3)N2C1` (some centres unmarked) [Example 178], the EC50 was less than 0.1 µM.

As to `Cc1cc(F)c(C(=O)O)cc1S(=O)(=O)N[C@H]1CC2=C(c3ccn(C(F)F)n3)[C@H](c3ccc(F)cc3Cl)N=C(c3nccs3)N2C1` [Example 29], the EC50 was more than 0.4 µM.

As to `O=C(O)Cc1ccccc1S(=O)(=O)N[C@H]1CC2=C(c3ccn(C(F)F)n3)[C@H](c3ccc(F)cc3Cl)N=C(c3nccs3)N2C1` [Example 32], the EC50 was 0.1 to 0.4 µM.

Regarding `CONC[C@@]1(O)CC2=C(c3ccn(C(F)F)n3)[C@H](c3ccc(F)cc3Cl)N=C(c3nccs3)N2C1` [Example 126], the EC50 is more than 0.4 µM.

In the case of `COC(=O)c1ccccc1S(=O)(=O)N[C@H]1CC2=C(c3ccn(C(F)F)n3)[C@H](c3ccc(F)cc3Cl)N=C(c3nccs3)N2C1` [Example 4], the EC50 was 0.1 to 0.4 µM.

As for `O=S(=O)(N[C@H]1CC2=C(c3ccn(C(F)F)n3)[C@H](c3ccc(F)cc3Cl)N=C(c3nccs3)N2C1)c1cccc(Cl)c1F` [Example 396], the EC50 was 0.1 to 0.4 µM.

`Fc1ccc([C@@H]2N=C(c3nccs3)N3C[C@@H](N4CCNCC4)CC3=C2c2ccn(C(F)F)n2)c(Cl)c1` [Example 45]: the EC50 was more than 0.4 µM.

Take `COC(=O)c1cccc(S(=O)(=O)NC[C@@]2(O)CC3=C(c4ccn(C(F)F)n4)[C@H](c4ccc(F)cc4Cl)N=C(c4nccs4)N3C2)c1` [Example 131]: the EC50 was in the range of 0.1 to 0.4 µM.

In the case of `O=S(=O)(N[C@H]1CC2=C(c3ccn(C(F)F)n3)[C@H](c3ccc(F)cc3Cl)N=C(c3nccs3)N2C1)[C@H]1CC[C@](O)(c2ccccn2)CC1` [Example 104], the EC50 was less than 0.1 µM.

With `O=S1(=O)CCCN1[C@H]1CC2=C(c3ccn(C(F)F)n3)[C@H](c3ccc(F)cc3Cl)N=C(c3nccs3)N2C1` [Example 375], the EC50 was in the range of 0.1 to 0.4 µM.

Consider `O=S(=O)(N[C@H]1CC2=C(c3ccn(C(F)F)n3)[C@H](c3ccc(F)cc3Cl)N=C(c3nccs3)N2C1)N1C[C@@H](O)[C@@H](O)C1` [Example 103], for which the EC50 is less than 0.1 µM.

With `CCNC(=O)N[C@H]1CC2=C(c3ccn(C(F)F)n3)[C@H](c3ccc(F)cc3Cl)N=C(c3nccs3)N2C1` [Example 203], the EC50 is less than 0.1 µM.

Take `O=S(=O)(N[C@H]1CC2=C(c3ccn(C(F)F)n3)[C@H](c3ccc(F)cc3Cl)N=C(c3nccs3)N2C1)N1CCC(O)(c2cnc(C3CC3)s2)CC1` [Example 262]: the EC50 is less than 0.1 µM.

For `OC[C@@]1(F)CC2=C(c3ccn(C(F)F)n3)[C@H](c3ccc(F)cc3Cl)N=C(c3nccs3)N2C1` [Example 166], the EC50 fell in the range of 0.1 to 0.4 µM.

Take `O=C(O)CC(NS(=O)(=O)N[C@H]1CC2=C(c3ccn(C(F)F)n3)[C@H](c3ccc(F)cc3Cl)N=C(c3nccs3)N2C1)c1ccccn1` (some centres unmarked) [Example 356]: the EC50 was 0.1 to 0.4 µM.

For the compound `CC(C)CCS(=O)(=O)N[C@H]1CC2=C(c3ccn(C(F)F)n3)[C@H](c3ccc(F)cc3Cl)N=C(c3nccs3)N2C1` [Example 71], the EC50 lay within 0.1 to 0.4 µM.

`COC(=O)c1cc(S(=O)(=O)N[C@H]2CC3=C(c4ccn(C(F)F)n4)[C@H](c4ccc(F)cc4Cl)N=C(c4nccs4)N3C2)c(C)cc1F` [Example 26]: the EC50 was more than 0.4 µM.

Regarding `C=CCNC[C@]1(O)CC2=C(c3ccn(C(F)F)n3)[C@H](c3ccc(F)cc3Cl)N=C(c3nccs3)N2C1` [Example 117], the EC50 is more than 0.4 µM.

As for `OCC(O)[C@@]1(F)CC2=C(c3ccn(C(F)F)n3)[C@H](c3ccc(F)cc3Cl)N=C(c3nccs3)N2C1` (some centres unmarked) [Example 170], the EC50 is 0.1 to 0.4 µM.

`O=C(O)CCCS(=O)(=O)N[C@H]1CC2=C(c3ccn(C(F)F)n3)[C@H](c3ccc(F)cc3Cl)N=C(c3nccs3)N2C1` [Example 11]: the EC50 is less than 0.1 µM.

In the case of `N#CC[C@@]1(F)CC2=C(c3ccn(C(F)F)n3)[C@H](c3ccc(F)cc3Cl)N=C(c3nccs3)N2C1` [Example 194], the EC50 was in the range of 0.1 to 0.4 µM.

As for `O=S(=O)(N[C@H]1CC2=C(c3ccn(C(F)F)n3)[C@H](c3ccc(F)cc3Cl)N=C(c3nccs3)N2C1)[C@H]1C[C@H]1c1ccccn1` [Example 391], the EC50 was in the range of 0.1 to 0.4 µM.

On to `COC(=O)OC[C@@]1(F)CC2=C(c3ccn(C(F)F)n3)[C@H](c3ccc(F)cc3Cl)N=C(c3nccs3)N2C1` [Example 183], for which the EC50 lay in the range of 0.1 to 0.4 µM.

For `O=S(=O)(CCN1CCCCC1)N[C@H]1CC2=C(c3ccn(C(F)F)n3)[C@H](c3ccc(F)cc3Cl)N=C(c3nccs3)N2C1` [Example 55], the EC50 is 0.1 to 0.4 µM.

Turning to `COC(=O)C1CCCN1CCS(=O)(=O)N[C@H]1CC2=C(c3ccn(C(F)F)n3)[C@H](c3ccc(F)cc3Cl)N=C(c3nccs3)N2C1` (some centres unmarked) [Example 60], the EC50 was more than 0.4 µM.

Take `O=C(N[C@H]1CC2=C(c3ccn(C(F)F)n3)[C@H](c3ccc(F)cc3Cl)N=C(c3nccs3)N2C1)C1(c2ccccn2)CC1` [Example 322]: the EC50 was in the range of 0.1 to 0.4 µM.

As to `CCOC(=O)C(NS(=O)(=O)N[C@H]1CC2=C(c3ccn(C(F)F)n3)[C@H](c3ccc(F)cc3Cl)N=C(c3nccs3)N2C1)c1ccccn1` (some centres unmarked) [Example 343], the EC50 was less than 0.1 µM.

Turning to `CS(=O)(=O)N1CCN(C(=O)N[C@H]2CC3=C(c4ccn(C(F)F)n4)[C@H](c4ccc(F)cc4Cl)N=C(c4nccs4)N3C2)CC1` [Example 222], the EC50 fell in the range of 0.1 to 0.4 µM.

In the case of `O=S(=O)(N[C@H]1CC2=C(c3ccn(C(F)F)n3)[C@H](c3ccc(F)cc3Cl)N=C(c3nccs3)N2C1)N1C[C@H](O)[C@@H](O)C1` [Example 101], the EC50 was less than 0.1 µM.

For `CNC(=O)N[C@H]1CC2=C(c3ccn(C(F)F)n3)[C@H](c3ccc(F)cc3Cl)N=C(c3nccs3)N2C1` [Example 199], the EC50 lay in the range of 0.1 to 0.4 µM.

For `COC(=O)CCS(=O)(=O)N[C@H]1CC2=C(c3ccn(C(F)F)n3)[C@H](c3ccc(F)cc3Cl)N=C(c3nccs3)N2C1` [Example 8], the concentration giving a half-maximal response (EC50) was 0.1 to 0.4 µM.

Consider `CCOC(=O)C1CCN(S(=O)(=O)N[C@H]2CC3=C(c4ccn(C(F)F)n4)[C@H](c4ccc(F)cc4Cl)N=C(c4nccs4)N3C2)CC1` [Example 87], for which the EC50 was less than 0.1 µM.

Consider `Cn1cc(S(=O)(=O)N[C@H]2CC3=C(c4ccn(C(F)F)n4)[C@H](c4ccc(F)cc4Cl)N=C(c4nccs4)N3C2)cn1` [Example 404], for which the EC50 was less than 0.1 µM.

As to `CC(C)NC(=O)N[C@H]1CC2=C(c3ccn(C(F)F)n3)[C@H](c3ccc(F)cc3Cl)N=C(c3nccs3)N2C1` [Example 204], the EC50 is less than 0.1 µM.

Consider `O=C(Nc1ccc(F)c(F)c1)c1cccc(S(=O)(=O)N[C@H]2CC3=C(c4ccn(C(F)F)n4)[C@H](c4ccc(F)cc4Cl)N=C(c4nccs4)N3C2)c1` [Example 422], for which the EC50 lay within 0.1 to 0.4 µM.

As for `O=Cc1cccc(S(=O)(=O)N[C@H]2CC3=C(c4ccn(C(F)F)n4)[C@H](c4ccc(F)cc4Cl)N=C(c4nccs4)N3C2)c1` [Example 333], the EC50 was less than 0.1 µM.

With `O=S(=O)(N[C@H]1CC2=C(c3ccn(C(F)F)n3)[C@H](c3ccc(F)cc3Cl)N=C(c3nccs3)N2C1)c1cccc(-c2ccccc2)n1` [Example 409], the EC50 was less than 0.1 µM.

Consider `CONC[C@]1(O)CC2=C(c3ccn(C(F)F)n3)[C@H](c3ccc(F)cc3Cl)N=C(c3nccs3)N2C1` [Example 127], for which the EC50 is more than 0.4 µM.

With `O=C1NCC2(CCN(S(=O)(=O)N[C@H]3CC4=C(c5ccn(C(F)F)n5)[C@H](c5ccc(F)cc5Cl)N=C(c5nccs5)N4C3)CC2)O1` [Example 163], the EC50 was less than 0.1 µM.

In the case of `O=C(CC1(S(=O)(=O)N[C@H]2CC3=C(c4ccn(C(F)F)n4)[C@H](c4ccc(F)cc4Cl)N=C(c4nccs4)N3C2)CC1)NCc1ccccn1` [Example 372], the EC50 was less than 0.1 µM.
